Results taken from patent US20110118277A1, “METHOD OF TREATING LIVER DISEASE” (priority 2003, published 2011).

What was measured:
oval cells = assay: Oval cell accumulation in Dbh-deficient mice fed MCD diet plus ethionine; assay type: in vivo, mouse; conditions: 4 weeks, ISO infused, FIG. 11
Description: Male Dbh* C57B 116 mice and their heterozygous littermates were generated and maintained as previously described in Cell 91: 583-592, 1997, and used at 30-40 weeks of age. Wild type C57B 116 mice were from Jackson Laboratory (Bar Harbor, Me.) Animals were allowed access to diets and water ad libitum. To induce oval cell expansion, mice were fed methionine choline deficient diets (ICN, Aurora, Ohio) supplemented with 0.15% Ethionine in the drinking water for 4 weeks. […]
Details of the staining procedures are as described in Am J Pathol 161: 521-530, 2002. […] Mouse monoclonal OV6 antibody and rat anti-cytokeratin 19 were detected using the DAKO Animal Research Kit, peroxidase (Dako, Denmark). The rabbit polyclonal antibody against 56 and 64 kiD human callus cytokeratins was detected by anti-rabbit Envision (Dako, Denmark) as described in J Pathol 199:191-200, 2003. […]
For each liver section, the number of oval cells in 5, randomly selected, non-overlapping, high power (×40 objective) fields was counted. […] Interlobular bile ducts were not considered progenitor cells and, thus not counted as such.
Dbh* and their control Dbh* littermates were fed methionine choline deficient (MCD) diets to induce oval cell expansion. […] Oval cell numbers were counted in 5 randomly selected fields/section from 4 mice/group. […]

[1] = test system: Mouse hepatic oval cells (HOC); assay: Oval cell growth in culture (WST-8 cell number assay); assay type: cell-based; conditions: 48 hours; for effect on NE-induced oval cell proliferation: prazosin 10 μM; for effect on NE-induced oval cell proliferation / effect on ISO-induced oval cell proliferation: pertussis toxin 100 ng/ml, PD98059 20 μM, SB202190 10 μM; for effect on ISO-induced oval cell proliferation: propranolol 10 μM
Description: Mouse hepatic oval cells (HOC) (from Dr. Bryon Petersen, University of Florida College of Medicine, Gainesville, Fla.) were maintained in culture with Iscove's modified DMEM according to the protocol described in PNAS 99: 8078-8083, 2002. To confirm that the cells retained their oval cell phenotype in our hands, expression of the embryonic isoform of pyruvate kinase (M2-PK) was evaluated by immunocytochemistry and immunoblot.
Sub-confluent HOC were harvested by gentle trypsinisation and resuspended in serum-free Iscove's modified Dulbecco's minimal essential medium (DMEM), at a density of 5,000 cells/100 μl/well in 96-well plates. […] After 44 hours, cell numbers were assessed by a further 4 h incubation with WST-8 tetrazolium reagent (Dojindo Molecular Technologies, Gaithersburg, Md.) as described in J Clin Invest 106: 501-509, 2000. In viable cells, the tetrazolium salt is metabolized to a colorimetric dye and cell number is proportional to the signal intensity at 450 nm Therefore, this assay reliably detects treatment-induced changes in cell number.
Oval cells were cultured in serum free medium (SF), serum or serum plus increasing concentrations of NE (a) or ISO (c). After 48 hours, the numbers of cells in culture were evaluated. […] Cell numbers were determined after 48 hours.

Compound	effect on proliferation of cultured oval cells ([1]; 5% serum)	effect on NE-induced oval cell proliferation [1]	effect on ISO-induced oval cell proliferation [1]	also measured
CC(C)NCC(O)c1ccc(O)c(O)c1 (centres unmarked) [ISO, isoprenaline]	promotes the proliferation of oval cells			hepatic oval cell accumulation in Dbh-deficient mice (oval cells): p<0.05 Dbh*+ISO versus Dbh*; concentration of peak proliferative activity (biphasic), first peak ([1]; ISO, 5% serum): 100 nM; concentration of peak proliferative activity (biphasic), second peak ([1]; ISO, 5% serum): 10 mM
NC[C@H](O)c1ccc(O)c(O)c1 [NE, norepinephrine]	significantly promote the proliferation of cultured oval cells			concentration of maximal proliferative effect ([1]; NE, 5% serum): 100 nM; concentration up to which the proliferative effect persists ([1]; NE, 5% serum): up to 100 μM
COc1cccc(-c2cc(=O)c3ccccc3o2)c1N [PD98059]		significantly attenuated	significantly attenuated	
Oc1ccc(-c2nc(-c3ccncc3)c(-c3ccc(F)cc3)[nH]2)cc1 [SB202190]		tends to reduce the effect of NE and ISO, but this is not statistically significant	tends to reduce the effect of NE and ISO, but this is not statistically significant	
CC(C)NCC(O)COc1cccc2ccccc12 (centres unmarked) [propranolol]			attenuated	
pertussis toxin		significantly attenuated	significantly attenuated	
